US10405547B2, “Substituted cyclic amides as herbicides” (FMC Corporation, priority 2015, dated 2019)

Columns and labels:
Type in all cases: in vivo
[1] = system: barnyardgrass (Echinochloa crus-galli); assay: Test A preemergence, barnyardgrass; settings: 0 to 100 scale (0 no effect, 100 complete control)
Outline: (§1)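 Greenhouse assay; ~10 d; visual injury vs untreated control, scored 0 = no effect through 100 = complete control. Post-emergent seedlings at one–two leaves; pre-emergent seeds in loam/sand given a directed soil spray.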

[2] = system: kochia (Kochia scoparia); assay: Test A preemergence, kochia; settings: 0 to 100 scale (0 no effect, 100 complete control)
Outline: as §1

[3] = system: ragweed (common ragweed, Ambrosia elatior); assay: Test A preemergence, ragweed; settings: 0 to 100 scale (0 no effect, 100 complete control)
Outline: as §1

[4] = system: ryegrass, Italian (Lolium multiflorum); assay: Test A preemergence, Italian ryegrass; settings: 0 to 100 scale (0 no effect, 100 complete control)
Outline: as §1

[5] = system: foxtail, giant (Setaria faberii); assay: Test A preemergence, giant foxtail; settings: 0 to 100 scale (0 no effect, 100 complete control)
Outline: as §1

[6] = system: pigweed (Amaranthus retroflexus); assay: Test A preemergence, pigweed; settings: 0 to 100 scale (0 no effect, 100 complete control)
Outline: as §1

[7] = system: barnyardgrass (Echinochloa crus-galli); assay: Test A postemergence, barnyardgrass; settings: 0 to 100 scale (0 no effect, 100 complete control)
Outline: as §1

[8] = system: kochia (Kochia scoparia); assay: Test A postemergence, kochia; settings: 0 to 100 scale (0 no effect, 100 complete control)
Outline: as §1

[9] = system: ragweed (common ragweed, Ambrosia elatior); assay: Test A postemergence, ragweed; settings: 0 to 100 scale (0 no effect, 100 complete control)
Outline: as §1

[10] = system: ryegrass, Italian (Lolium multiflorum); assay: Test A postemergence, Italian ryegrass; settings: 0 to 100 scale (0 no effect, 100 complete control)
Outline: as §1

[11] = system: foxtail, giant (Setaria faberii); assay: Test A postemergence, giant foxtail; settings: 0 to 100 scale (0 no effect, 100 complete control)
Outline: as §1

[12] = system: pigweed (Amaranthus retroflexus); assay: Test A postemergence, pigweed; settings: 0 to 100 scale (0 no effect, 100 complete control)
Outline: as §1

[13] = system: blackgrass (Alopecurus myosuroides); assay: Test A postemergence, blackgrass; settings: 0 to 100 scale (0 no effect, 100 complete control)
Outline: as §1

[14] = system: galium (catchweed bedstraw, Galium aparine); assay: Test A postemergence, galium; settings: 0 to 100 scale (0 no effect, 100 complete control)
Outline: as §1

[15] = system: wheat (Triticum aestivum); assay: Test A postemergence, wheat; settings: 0 to 100 scale (0 no effect, 100 complete control)
Outline: as §1

[16] = system: corn (Zea mays); assay: Test A postemergence, corn; settings: 0 to 100 scale (0 no effect, 100 complete control)
Outline: as §1

[17] = system: rice (Oryza sativa); assay: Test B flooded paddy test, rice; settings: applied to paddy water, visual rating after 13 to 15 days, scale 0 (no effect) to 100 (complete control)
Outline: (§2)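 Greenhouse pots flooded to 3 cm above soil at time of treatment received compound via the water, which stayed at that level.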

[18] = system: sedge, umbrella (small-flower umbrella sedge, Cyperus difformis); assay: Test B flooded paddy test, umbrella sedge; settings: applied to paddy water, visual rating after 13 to 15 days, scale 0 (no effect) to 100 (complete control)
Outline: as §2

[19] = system: ducksalad (Heteranthera limosa); assay: Test B flooded paddy test, ducksalad; settings: applied to paddy water, visual rating after 13 to 15 days, scale 0 (no effect) to 100 (complete control)
Outline: as §2

[20] = system: barnyardgrass (Echinochloa crus-galli); assay: Test B flooded paddy test, barnyardgrass; settings: applied to paddy water, visual rating after 13 to 15 days, scale 0 (no effect) to 100 (complete control)
Outline: as §2

[21] = 125 g ai/ha, visual injury, approximately 10 days
[22] = 500 g ai/ha, visual injury, approximately 10 days

Compound	Plant response rating, Barnyardgrass ([1]; 125 g ai/ha)	Plant response rating, Barnyardgrass ([1]; 500 g ai/ha)	Plant response rating, Kochia ([2]; 125 g ai/ha)	Plant response rating, Kochia ([2]; 500 g ai/ha)	Plant response rating, Ragweed ([3]; 125 g ai/ha)	Plant response rating, Ragweed ([3]; 500 g ai/ha)	Plant response rating, Ryegrass, Italian ([4]; 125 g ai/ha)	Plant response rating, Ryegrass, Italian ([4]; 500 g ai/ha)	Plant response rating, Foxtail, Giant ([5]; 125 g ai/ha)	Plant response rating, Pigweed ([6]; 125 g ai/ha)	Plant response rating, Barnyardgrass [7, 21]	Plant response rating, Kochia [8, 21]	Plant response rating, Ragweed [9, 21]	Plant response rating, Ryegrass, Italian [10, 21]	Plant response rating, Foxtail, Giant [11, 21]	Plant response rating, Pigweed [12, 21]	Plant response rating, Blackgrass [13, 21]	Plant response rating, Galium [14, 21]	Plant response rating, Wheat [15, 21]	Plant response rating, Corn [16, 21]	further results
CC1(COc2cccc(C3CNC(=O)C3C(=O)Nc3ccccc3C(F)(F)F)c2)COC1 (stereo not drawn) [Compound 15]	0	60	0	0	0	0	0	0	10	0	0	0	0	0	10	0	0	0	0	0	Plant response rating, Foxtail, Giant ([5]; 500 g ai/ha): 40; Plant response rating, Pigweed ([6]; 500 g ai/ha): 0; Plant response rating, Barnyardgrass [7, 22]: 0; Plant response rating, Kochia [8, 22]: 0; Plant response rating, Ragweed [9, 22]: 30; Plant response rating, Ryegrass, Italian [10, 22]: 0; Plant response rating, Foxtail, Giant [11, 22]: 20; Plant response rating, Pigweed [12, 22]: 0; Plant response rating, Blackgrass [13, 22]: 0; Plant response rating, Galium [14, 22]: 0; Plant response rating, Wheat [15, 22]: 0; Plant response rating, Corn [16, 22]: 0; Plant response rating, Rice (Flood) ([17]; 250 g ai/ha): 0; Plant response rating, Sedge, Umbrella (Flood) ([18]; 250 g ai/ha): 0; Plant response rating, Ducksalad (Flood) ([19]; 250 g ai/ha): 50; Plant response rating, Barnyardgrass (Flood) ([20]; 250 g ai/ha): 0
CN1CC(c2cccc(Oc3ccc(F)cn3)c2)C(C(=O)Nc2cccc(F)c2C#N)C1=O (single isomer, unassigned) [Compound 89]	70	–	0	–	0	–	40	–	90	60	70	0	0	20	70	50	20	40	0	0	Plant response rating, Barnyardgrass ([1]; 31 g ai/ha): 30; Plant response rating, Kochia ([2]; 31 g ai/ha): 0; Plant response rating, Ragweed ([3]; 31 g ai/ha): 0; Plant response rating, Ryegrass, Italian ([4]; 31 g ai/ha): 0; Plant response rating, Foxtail, Giant ([5]; 31 g ai/ha): 40; Plant response rating, Pigweed ([6]; 31 g ai/ha): 0; Plant response rating, Barnyardgrass ([7]; 31 g ai/ha): 30; Plant response rating, Kochia ([8]; 31 g ai/ha): 0; Plant response rating, Ragweed ([9]; 31 g ai/ha): 0; Plant response rating, Ryegrass, Italian ([10]; 31 g ai/ha): 0; Plant response rating, Foxtail, Giant ([11]; 31 g ai/ha): 30; Plant response rating, Pigweed ([12]; 31 g ai/ha): 0; Plant response rating, Blackgrass ([13]; 31 g ai/ha): 0; Plant response rating, Galium ([14]; 31 g ai/ha): 30; Plant response rating, Wheat ([15]; 31 g ai/ha): 0; Plant response rating, Corn ([16]; 31 g ai/ha): 0; Plant response rating, Rice (Flood) ([17]; 250 g ai/ha): 0; Plant response rating, Sedge, Umbrella (Flood) ([18]; 250 g ai/ha): 0; Plant response rating, Ducksalad (Flood) ([19]; 250 g ai/ha): 70; Plant response rating, Barnyardgrass (Flood) ([20]; 250 g ai/ha): 0
CN(C)N=Cc1cccc(C2CN(C)C(=O)C2C(=O)Nc2ccccc2F)c1 (stereo not drawn) [Compound 54]	0	20	0	0	0	0	0	0	0	0	0	0	0	0	0	0	0	0	0	0	Plant response rating, Foxtail, Giant ([5]; 500 g ai/ha): 70; Plant response rating, Pigweed ([6]; 500 g ai/ha): 0; Plant response rating, Barnyardgrass [7, 22]: 30; Plant response rating, Kochia [8, 22]: 0; Plant response rating, Ragweed [9, 22]: 0; Plant response rating, Ryegrass, Italian [10, 22]: 0; Plant response rating, Foxtail, Giant [11, 22]: 20; Plant response rating, Pigweed [12, 22]: 0; Plant response rating, Blackgrass [13, 22]: 0; Plant response rating, Galium [14, 22]: 0; Plant response rating, Wheat [15, 22]: 0; Plant response rating, Corn [16, 22]: 0; Plant response rating, Rice (Flood) ([17]; 250 g ai/ha): 0; Plant response rating, Sedge, Umbrella (Flood) ([18]; 250 g ai/ha): 0; Plant response rating, Ducksalad (Flood) ([19]; 250 g ai/ha): 0; Plant response rating, Barnyardgrass (Flood) ([20]; 250 g ai/ha): 0
O=C1NCC(c2cccc(OCc3ccccc3)c2)C1C(=O)Nc1cccc(F)c1F (stereo not drawn) [Compound 65]	0	0	0	0	0	0	0	0	0	0	0	0	0	0	0	0	0	0	0	0	Plant response rating, Foxtail, Giant ([5]; 500 g ai/ha): 0; Plant response rating, Pigweed ([6]; 500 g ai/ha): 0; Plant response rating, Barnyardgrass [7, 22]: 0; Plant response rating, Kochia [8, 22]: 0; Plant response rating, Ragweed [9, 22]: 0; Plant response rating, Ryegrass, Italian [10, 22]: 0; Plant response rating, Foxtail, Giant [11, 22]: 0; Plant response rating, Pigweed [12, 22]: 0; Plant response rating, Blackgrass [13, 22]: 0; Plant response rating, Galium [14, 22]: 0; Plant response rating, Wheat [15, 22]: 0; Plant response rating, Corn [16, 22]: 0; Plant response rating, Rice (Flood) ([17]; 500 g ai/ha): 0; Plant response rating, Sedge, Umbrella (Flood) ([18]; 500 g ai/ha): 0; Plant response rating, Ducksalad (Flood) ([19]; 500 g ai/ha): 0; Plant response rating, Barnyardgrass (Flood) ([20]; 500 g ai/ha): 0
